According to patent US9573964B2, “Oxygen linked pyrimidine derivatives” (CTI BIOPHARMA CORP., priority 2005, dated 2017):
pIC50: −log10 of the molar value.

Legend:
[1] = system: HL60 (acute myeloid leukemia cell line); assay: Cell-based proliferation assay for GI50, HL60; settings: Homo sapiens, HL-60; HL60 cells, 96 h treatment
Method: (§1) Human cancer cell lines HL60 (acute myeloid leukemia cell line), Colo205 (colon adenocarcinoma cell line), HEL92.1.7 (erythroleukemia cell line) and MV4-11 (acute myeloid leukemia cell line) were obtained from ATCC. They were cultivated in the media according to the ATCC work instructions. Colo205 cells were seeded in 96-wells plate at 5000 cells per well. HEL92.1.7 and MV4-11 cells were seeded at 6000 cells per well while HL60 cells were seeded at 8000 cells per well in 96 well plate. The plates were incubated at 37° C., 5% CO2, for 24 h. Cells were treated with compounds at various concentrations for 96 h. Cell growth was then monitored using Celltiter96 Aqueous One Solution Cell Proliferation Assay from Promega (Madison Wis.). Dose response curves were plotted to determine GI50 values for the compounds using XL-fit (ID Business Solution, Emeryville, Calif.).

FLT3 = molecular target: T1, FLT3 (Homo sapiens, UniProt P36888); assay: In vitro kinase activity assay (PKLight), FLT3; format: biochemical
T1 construct: purchased Invitrogen PV3182
T1 sequence (P36888 27-993): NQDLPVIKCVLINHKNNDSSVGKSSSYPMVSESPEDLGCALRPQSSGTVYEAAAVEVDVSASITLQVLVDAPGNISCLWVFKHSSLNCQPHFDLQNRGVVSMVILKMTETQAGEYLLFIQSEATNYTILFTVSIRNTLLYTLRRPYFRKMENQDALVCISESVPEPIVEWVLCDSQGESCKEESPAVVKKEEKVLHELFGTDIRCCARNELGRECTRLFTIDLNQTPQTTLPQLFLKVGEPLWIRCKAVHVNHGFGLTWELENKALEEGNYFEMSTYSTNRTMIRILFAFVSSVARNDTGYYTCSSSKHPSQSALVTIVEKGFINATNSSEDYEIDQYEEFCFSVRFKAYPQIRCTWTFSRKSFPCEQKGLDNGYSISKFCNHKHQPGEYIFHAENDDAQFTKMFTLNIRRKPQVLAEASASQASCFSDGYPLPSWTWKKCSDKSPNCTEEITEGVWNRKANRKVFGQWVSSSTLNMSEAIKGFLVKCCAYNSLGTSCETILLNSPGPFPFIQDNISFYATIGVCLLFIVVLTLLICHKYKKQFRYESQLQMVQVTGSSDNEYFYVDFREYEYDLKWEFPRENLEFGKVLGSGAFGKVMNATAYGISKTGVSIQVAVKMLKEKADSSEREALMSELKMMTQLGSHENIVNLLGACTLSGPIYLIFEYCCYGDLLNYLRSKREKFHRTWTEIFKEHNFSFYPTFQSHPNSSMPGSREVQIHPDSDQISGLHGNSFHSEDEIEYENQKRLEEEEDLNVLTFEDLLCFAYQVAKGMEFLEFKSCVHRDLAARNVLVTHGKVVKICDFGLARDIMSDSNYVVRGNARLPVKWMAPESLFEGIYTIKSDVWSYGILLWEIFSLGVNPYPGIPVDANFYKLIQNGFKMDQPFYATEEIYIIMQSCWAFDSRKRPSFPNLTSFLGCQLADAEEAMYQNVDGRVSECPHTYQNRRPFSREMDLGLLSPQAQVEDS
Method: (§2) All assays were carried out in 384-well white microtiter plates using the PKLight assay system from Cambrex (East Rutherford, N.J.). This assay platform is essentially a luminometric assay for the detection of ATP in the reaction using a luciferase-coupled reaction. For CDK2/Cyclin A assay, the reaction mixture consisted of the following components in 25 μL assay buffer (50 mM Hepes pH 7.5, 10 mM MgCl2, 5 mM MnCl2, 5 mM BGP, 1 mM DTT, 0.1 mM sodium orthovanadate), 1.4 μg/mL of CDK2/Cyclin A complex, 0.5 μM of RbING substrate (Invitrogen, Cat #PV2939) and 0.5 μM of ATP. The compounds were tested at 8 concentrations prepared from 4-fold serial dilution starting at 10 μM. The reaction was incubated at room temperature for 2 hr. 13 μL of PKLight ATP detection reagent was added and the reaction was incubated for 10 min. Luminescence signals were detected on a multi-label plate reader (Victor^2 V 1420, Perkin-Elmer). The other kinase assays were identical except for the following differences in reagents. For FLT3 assays, the reaction contained 2.0 μg/mL FLT3 enzyme, 5 μM of poly(Glu,Tyr) substrate (Sigma, Cat #P0275) and 4 μM of ATP. For JAK2 assays, the reaction contained 0.6 μg/mL of JAK2 enzyme, 2 μM of poly(Glu,Ala,Tyr) substrate (Sigma, Cat #P3899) and 0.2 μM of ATP. […] The analytical software, Prism 4.0 (GraphPad Software Pte Ltd) was used to generate IC50 values from the data.

[2] = system: Colo205 (colon adenocarcinoma cell line); assay: Cell-based proliferation assay for GI50, Colo205; settings: Homo sapiens, COLO 205; Colo205 cells, 96 h treatment
Method: as §1

CDK2/CyclinA = molecular target: T2, CDK2/CyclinA (Homo sapiens, UniProt P24941); assay: In vitro kinase activity assay (PKLight), CDK2/Cyclin A; format: biochemical; settings: 0.5 μM ATP
T2 construct: purchased Invitrogen PV3267
Method: The recombinant enzymes (CDK2/CyclinA, FLT3, JAK2 and JAK2 V617F) were purchased from Invitrogen (Cat #PV3267, 3182, 4210 and 4347 respectively). All assays were carried out in 384-well white microtiter plates using the PKLight assay system from Cambrex (East Rutherford, N.J.). This assay platform is essentially a luminometric assay for the detection of ATP in the reaction using a luciferase-coupled reaction. For CDK2/Cyclin A assay, the reaction mixture consisted of the following components in 25 μL assay buffer (50 mM Hepes pH 7.5, 10 mM MgCl2, 5 mM MnCl2, 5 mM BGP, 1 mM DTT, 0.1 mM sodium orthovanadate), 1.4 μg/mL of CDK2/Cyclin A complex, 0.5 μM of RbING substrate (Invitrogen, Cat #PV2939) and 0.5 μM of ATP. The compounds were tested at 8 concentrations prepared from 4-fold serial dilution starting at 10 μM. The reaction was incubated at room temperature for 2 hr. 13 μL of PKLight ATP detection reagent was added and the reaction was incubated for 10 min. Luminescence signals were detected on a multi-label plate reader (Victor^2 V 1420, Perkin-Elmer). The other kinase assays were identical except for the following differences in reagents. For FLT3 assays, the reaction contained 2.0 μg/mL FLT3 enzyme, 5 μM of poly(Glu,Tyr) substrate (Sigma, Cat #P0275) and 4 μM of ATP. For JAK2 assays, the reaction contained 0.6 μg/mL of JAK2 enzyme, 2 μM of poly(Glu,Ala,Tyr) substrate (Sigma, Cat #P3899) and 0.2 μM of ATP. For JAK2 V617F mutant assays, the reaction contained 8.0 μg/mL of JAK2 mutant enzyme, 2 μM of poly(Glu,Ala,Tyr) substrate (Sigma, Cat #P3899) and 0.2 μM of ATP. The analytical software, Prism 4.0 (GraphPad Software Pte Ltd) was used to generate IC50 values from the data.

JAK2 = molecular target: T3, JAK2 (Homo sapiens, UniProt O60674); assay: In vitro kinase activity assay (PKLight), JAK2; format: biochemical
T3 construct: purchased Invitrogen PV4210
Method: as §2

[3] = system: HEL92.1.7 (erythroleukemia cell line); assay: Cell-based proliferation assay for GI50, HEL92.1.7; settings: Homo sapiens, HEL 92.1.7; HEL92.1.7 cells, 96 h treatment
Method: as §1

[4] = system: MV4-11 (acute myeloid leukemia cell line); assay: Cell-based proliferation assay for GI50, MV4-11; settings: Homo sapiens; MV4-11 cells, 96 h treatment
Method: as §1

JAK2 V617F = molecular target: T4, JAK2 V617F (Homo sapiens, UniProt O60674, V617F); assay: In vitro kinase activity assay (PKLight), JAK2 V617F mutant; format: biochemical
T4 construct: purchased Invitrogen PV4347
Method: as §2

T4 sequence (O60674 whole entry V617F): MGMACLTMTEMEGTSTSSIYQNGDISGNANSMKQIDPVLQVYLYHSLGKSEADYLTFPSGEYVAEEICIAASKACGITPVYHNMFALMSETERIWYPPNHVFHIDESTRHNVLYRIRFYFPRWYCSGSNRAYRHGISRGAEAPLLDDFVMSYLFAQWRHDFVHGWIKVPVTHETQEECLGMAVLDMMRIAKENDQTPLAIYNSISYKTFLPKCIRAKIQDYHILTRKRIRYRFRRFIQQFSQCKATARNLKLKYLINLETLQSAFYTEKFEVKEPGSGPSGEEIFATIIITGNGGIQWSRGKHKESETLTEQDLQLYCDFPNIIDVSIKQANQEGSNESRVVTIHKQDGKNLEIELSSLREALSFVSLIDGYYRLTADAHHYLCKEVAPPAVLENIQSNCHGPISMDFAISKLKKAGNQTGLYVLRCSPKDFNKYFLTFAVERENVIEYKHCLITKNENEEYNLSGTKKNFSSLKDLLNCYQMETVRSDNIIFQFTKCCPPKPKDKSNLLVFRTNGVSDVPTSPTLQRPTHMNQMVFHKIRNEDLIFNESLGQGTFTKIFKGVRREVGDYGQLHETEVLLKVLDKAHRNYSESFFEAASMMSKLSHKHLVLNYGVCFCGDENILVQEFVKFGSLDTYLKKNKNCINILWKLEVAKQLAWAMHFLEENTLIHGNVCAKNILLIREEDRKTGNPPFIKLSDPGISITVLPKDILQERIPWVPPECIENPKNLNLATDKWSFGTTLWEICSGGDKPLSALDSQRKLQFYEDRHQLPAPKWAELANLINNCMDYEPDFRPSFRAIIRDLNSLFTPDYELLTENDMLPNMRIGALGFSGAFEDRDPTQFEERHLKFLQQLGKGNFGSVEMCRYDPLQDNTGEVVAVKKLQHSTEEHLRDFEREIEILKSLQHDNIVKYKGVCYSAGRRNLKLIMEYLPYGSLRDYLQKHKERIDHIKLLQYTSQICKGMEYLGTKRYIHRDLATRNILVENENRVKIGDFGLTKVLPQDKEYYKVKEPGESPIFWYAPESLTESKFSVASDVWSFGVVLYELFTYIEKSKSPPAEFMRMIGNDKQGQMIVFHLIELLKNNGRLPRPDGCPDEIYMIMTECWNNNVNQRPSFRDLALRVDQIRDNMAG
T3 sequence (O60674 whole entry): as the sequence (O60674 whole entry V617F) above, with F617V counted along it

| SMILES | GI50 [1] [µM] | pIC50 (FLT3) | GI50 [2] [µM] | pIC50 (CDK2/CyclinA) | pIC50 (JAK2) | GI50 [3] [µM] | GI50 [4] [µM] | pIC50 (JAK2 V617F) |
| --- | --- | --- | --- | --- | --- | --- | --- | --- |
| COc1ccc2cc1COC/C=C/COc1cccc(c1)-c1ccnc(n1)N2 [Compound 6] | 1 to 5 | ≥ 6.00 | 1 to 5 | ≥ 6.00 | ≥ 6.00 |  |  |  |
| COc1ccc2cc1COC/C=C\COc1cccc(c1)-c1ccnc(n1)N2 [Compound 7] | ≤ 1 | ≥ 6.00 | > 5 | < 5.30 | < 5.30 | > 5 | > 5 |  |
| C1=C/COCc2cc(ccc2OCCN2CCCC2)Nc2nccc(n2)-c2cccc(c2)COC/1 [Compound 13] | ≤ 1 |  | 1 to 5 | 5.30 to 6.00 |  | 1 to 5 | ≤ 1 |  |
| COc1ccc2cc1COC/C=C/COCc1cc(ccc1OCCN1CCCC1)Nc1nccc-2n1 [Compound 14] | ≤ 1 | ≥ 6.00 | 1 to 5 | < 5.30 | ≥ 6.00 | ≤ 1 | ≤ 1 | ≥ 6.00 |
| CCN(CC)CCOc1ccc2cc1COC/C=C/COCc1cccc(c1)-c1ccnc(n1)N2 [Compound 15] | ≤ 1 | ≥ 6.00 | 1 to 5 | 5.30 to 6.00 | ≥ 6.00 | 1 to 5 | ≤ 1 | ≥ 6.00 |
| CCN(CC)CCOc1ccc2cc1COC/C=C/CCOc1cccc(c1)-c1ccnc(n1)N2 [Compound 19] | ≤ 1 | ≥ 6.00 | ≤ 1 | < 5.30 | ≥ 6.00 | ≤ 1 | ≤ 1 | ≥ 6.00 |
| CCN(CC)CCOc1ccc2cc1COC/C=C/CCOc1cccc(c1)-c1nc(ncc1C)N2 [Compound 29] | ≤ 1 | ≥ 6.00 |  | < 5.30 | ≥ 6.00 | 1 to 5 | ≤ 1 | ≥ 6.00 |
| COc1cc2cc(c1OCCN1CCCC1)COC/C=C/COCc1cccc(c1)-c1ccnc(n1)N2 [Compound 32] | ≤ 1 | ≥ 6.00 |  | 5.30 to 6.00 | ≥ 6.00 | 1 to 5 | ≤ 1 |  |
| C1=C/COCc2cc(ccc2N2CCOCC2)Nc2nccc(n2)-c2cccc(c2)COC/1 [Compound 33] | 1 to 5 | ≥ 6.00 |  | < 5.30 | ≥ 6.00 | 1 to 5 | ≤ 1 |  |
| Fc1cc2cc(c1)-c1ccnc(n1)Nc1ccc(OCCN3CCCC3)c(c1)COC/C=C/CCO2 [Compound 36] | ≤ 1 | ≥ 6.00 |  | 5.30 to 6.00 | ≥ 6.00 | 1 to 5 | ≤ 1 |  |
| C1=C2COC/C=C/COCc3cc(ccc3OCCN3CCCC3)Nc3nccc(n3)C(=C1)O2 [Compound 38] | ≤ 1 | ≥ 6.00 |  | < 5.30 | ≥ 6.00 | 1 to 5 | ≤ 1 |  |
| CN1CCN(c2ccc3cc2COC/C=C/COCc2cccc(c2)-c2ccnc(n2)N3)CC1 [Compound 40] | ≤ 1 | ≥ 6.00 |  | < 5.30 | ≥ 6.00 | ≤ 1 | ≤ 1 |  |
| Fc1ccc2cc1COC/C=C/COCc1cc(ccc1OCCN1CCCC1)Nc1nccc-2n1 [Compound 46] | ≤ 1 | ≥ 6.00 |  | 5.30 to 6.00 | ≥ 6.00 | 1 to 5 | ≤ 1 |  |
| C1=C2COC/C=C/COCc3cc(ccc3OCCN3CCCC3)Nc3nccc(n3)C(=C1)S2 [Compound 48] | ≤ 1 | ≥ 6.00 | ≤ 1 | < 5.30 | ≥ 6.00 | ≤ 1 | ≤ 1 |  |
| C1=C/COCc2cc(ccc2OCCN2CCCC2)Nc2nccc(n2)-c2coc(c2)COC/1 [Compound 50] | ≤ 1 | ≥ 6.00 |  | < 5.30 | ≥ 6.00 | 1 to 5 | ≤ 1 |  |
| C1=C/COCc2cc(ccc2OCCN2CCCC2)Nc2nccc(n2)-c2csc(c2)COC/1 [Compound 52] | ≤ 1 | ≥ 6.00 |  | < 5.30 | ≥ 6.00 | ≤ 1 | ≤ 1 |  |
| c1cc2cc(c1)-c1ccnc(n1)Nc1ccc(OCCN3CCCC3)c(c1)COCC1CC1COC2 (stereo not shown) [Compound 53] | ≤ 1 | ≥ 6.00 |  | 5.30 to 6.00 | ≥ 6.00 | 1 to 5 | ≤ 1 |  |
| C1=C/COCc2cc(ccc2OCCN2CCCC2)Nc2nccc(n2)-c2cc(co2)COC/1 [Compound 55] | 1 to 5 | ≥ 6.00 |  | < 5.30 | ≥ 6.00 | 1 to 5 | ≤ 1 |  |
| C1=C/COCc2cc(ccc2OCCN2CCCC2)Nc2nccc(n2)-c2cncc(c2)COC/1 [Compound 56] | ≤ 1 | ≥ 6.00 |  | 5.30 to 6.00 | ≥ 6.00 | 1 to 5 | ≤ 1 |  |
